By inhibition is commonly meant the drop in the measured response relative to a control, in per cent.

Experiment [1] concerns Serine/threonine-protein kinase B-raf (Homo sapiens), P15056 [V600E]. Put plainly: Inhibition of recombinant human B-raf V599E mutant (416 to end residues) at 1 uM using myelin basic protein as substrate after 40 mins in presence of [gamma-33P]ATP by scintillation counting method.
The target of experiment [2] is Protein-tyrosine kinase 6 (Homo sapiens) (UniProt Q13882). Put plainly: Inhibition of recombinant full-length human BRK at 1 uM using poly(Glu,Tyr) 4:1 as substrate after 40 mins in presence of [gamma-33P]ATP by scintillation counting method.
Experiment [3] concerns the target CDK7/Cyclin H/MNAT1 (Homo sapiens) (UniProt P51946+P50613+P51948). Put plainly: Inhibition of recombinant full-length human CDK7/CyclinH/MAT1 at 1 uM using peptide as substrate after 40 mins in presence of [gamma-33P]ATP by scintillation counting method. Type of experiment: protein-complex assay.
Experiment [4] has as its target Casein kinase I isoform gamma-3 (Homo sapiens) (UniProt Q9Y6M4). Put plainly: Inhibition of recombinant human CK1gamma3 (1 to 330 residues) at 1 uM using KRRRALS(p)VASLPGL as substrate after 40 mins in presence of [gamma-33P]ATP by scintillation counting method.
For experiment [5], the target named is Casein kinase II subunit alpha (Homo sapiens) (UniProt P68400). Put plainly: Inhibition of recombinant full-length human CK2alpha1 at 1 uM using RRRDDDSDDD as substrate after 40 mins in presence of [gamma-33P]ATP by scintillation counting method.
In experiment [6] the target is Dual specificity protein kinase CLK3 (Homo sapiens) (UniProt P49761). Put plainly: Inhibition of recombinant full-length human CLK3 at 1 uM using ERMRPRKRQGSVRRRV as substrate after 40 mins in presence of [gamma-33P]ATP by scintillation counting method.
In experiment [7] the target is Dual specificity protein kinase CLK4 (Homo sapiens) (UniProt Q9HAZ1). Put plainly: Inhibition of recombinant human CLK4 (128 to end residues) at 1 uM using YRRAAVPPSPSLSRHSSPHQS(p)EDEEE as substrate after 40 mins in presence of [gamma-33P]ATP by scintillation counting method.
Experiment [8] deals with Focal adhesion kinase 1 (Homo sapiens) (UniProt Q05397). Put plainly: Inhibition of recombinant human FAK (411 to 686 residues) at 1 uM using EEEEYEEEEEEYYIIEEEEEEYEEEEEEYYEEEEEEKKKK as substrate after 40 mins in presence of [gamma-33P]ATP by scintillation counting method.
For experiment [9], the target named is G protein-coupled receptor kinase 6 (Homo sapiens) (UniProt P43250). Put plainly: Inhibition of recombinant full-length human GRK6 at 1 uM using casein as substrate after 40 mins in presence of [gamma-33P]ATP by scintillation counting method.
In experiment [10] the target is Mitogen-activated protein kinase kinase kinase kinase 5 (Homo sapiens) (UniProt Q9Y4K4). Put plainly: Inhibition of recombinant full-length human MAP4K5 at 1 uM using myelin basic protein as substrate after 40 mins in presence of [gamma-33P]ATP by scintillation counting method.
Experiment [11] has as its target MAP kinase-activated protein kinase 2 (Homo sapiens) (UniProt P49137). Put plainly: Inhibition of recombinant human MAPKAPK2 (46 to end residues) at 1 uM using KKLNRTLSVA as substrate after 40 mins in presence of [gamma-33P]ATP by scintillation counting method.
Experiment [12] deals with Dual specificity mitogen-activated protein kinase kinase 2 (Homo sapiens) (UniProt P36507). Put plainly: Inhibition of recombinant full-length human MEK2 at 1 uM using MBP as substrate after 40 mins in presence of [gamma-33P]ATP by scintillation counting method.
Experiment [13] has as its target Maternal embryonic leucine zipper kinase (Homo sapiens) (UniProt Q14680). Put plainly: Inhibition of recombinant human MELK (1 to 340 residues) at 1 uM using KKLNRTLSFAEPG as substrate after 40 mins in presence of [gamma-33P]ATP by scintillation counting method.
Experiment [14] concerns the target Dual specificity mitogen-activated protein kinase kinase 4 (Mus musculus) (UniProt P47809). Put plainly: Inhibition of recombinant mouse MKK4 (34 to end residues) at 1 uM using inactive JNK1a1 as substrate after 40 mins in presence of [gamma-33P]ATP by scintillation counting method.
Experiment [15] concerns the target Serine/threonine-protein kinase MRCK alpha (Homo sapiens) (UniProt Q5VT25). Put plainly: Inhibition of recombinant human MRCKalpha (1 to 473 residues) at 1 uM using KKRNRTLTV as substrate after 40 mins in presence of [gamma-33P]ATP by scintillation counting method.
Experiment [16] deals with Serine/threonine-protein kinase Nek3 (Homo sapiens) (UniProt P51956). Put plainly: Inhibition of recombinant full-length human NEK3 at 1 uM using myelin basic protein as substrate after 40 mins in presence of [gamma-33P]ATP by scintillation counting method.
For experiment [17], the target named is PI3K p110 beta/p85 alpha (Homo sapiens) (UniProt P27986+P42338). Put plainly: Inhibition of recombinant full-length human p110b/p85a at 1 uM using phosphatidylinositol 4,5-bisphosphate as substrate after 40 mins in presence of [gamma-33P]ATP by scintillation counting method. Type of experiment: protein-complex assay.
In experiment [18] the target is PI3-kinase p110-delta/p85-alpha (Homo sapiens) (UniProt P27986+O00329). Put plainly: Inhibition of recombinant full-length human p110d/p85a at 1 uM using phosphatidylinositol 4,5-bisphosphate as substrate after 40 mins in presence of [gamma-33P]ATP by scintillation counting method. Type of experiment: protein-complex assay.
Experiment [19] concerns the target cGMP-dependent protein kinase 1 (Homo sapiens) (UniProt Q13976). Put plainly: Inhibition of recombinant full-length human PKG1alpha at 1 uM using RRRLSFAEPG as substrate after 40 mins in presence of [gamma-33P]ATP by scintillation counting method.
The target in experiment [20] is Ribosomal protein S6 kinase alpha-3 (Homo sapiens) (UniProt P51812). Put plainly: Inhibition of recombinant human Rsk2 (2 to end residues) at 1 uM using KKKNRTLSVA as substrate after 40 mins in presence of [gamma-33P]ATP by scintillation counting method.
In experiment [21] the target is Mitogen-activated protein kinase 14 (Homo sapiens) (UniProt Q16539). Put plainly: Inhibition of recombinant full-length human SAPK2a at 1 uM using myelin basic protein as substrate after 40 mins in presence of [gamma-33P]ATP by scintillation counting method.
Experiment [22] deals with Mitogen-activated protein kinase 12 (Homo sapiens) (UniProt P53778). Put plainly: Inhibition of recombinant full-length human SAPK3 at 1 uM using myelin basic protein as substrate after 40 mins in presence of [gamma-33P]ATP by scintillation counting method.
The target in experiment [23] is Serine/threonine-protein kinase WNK2 (Homo sapiens) (UniProt Q9Y3S1). Put plainly: Inhibition of recombinant human WNK2 (166 to 489 residues) at 1 uM using myelin basic protein as substrate after 40 mins in presence of [gamma-33P]ATP by scintillation counting method.
Experiment [24] deals with Protein-tyrosine kinase 6 (Homo sapiens) (UniProt Q13882). Put plainly: Inhibition of recombinant full-length human BRK at 10 uM using poly(Glu,Tyr) 4:1 as substrate after 40 mins in presence of [gamma-33P]ATP by scintillation counting method.

Sequence of Protein-tyrosine kinase 6 (Homo sapiens) (Q13882 whole entry, looked up): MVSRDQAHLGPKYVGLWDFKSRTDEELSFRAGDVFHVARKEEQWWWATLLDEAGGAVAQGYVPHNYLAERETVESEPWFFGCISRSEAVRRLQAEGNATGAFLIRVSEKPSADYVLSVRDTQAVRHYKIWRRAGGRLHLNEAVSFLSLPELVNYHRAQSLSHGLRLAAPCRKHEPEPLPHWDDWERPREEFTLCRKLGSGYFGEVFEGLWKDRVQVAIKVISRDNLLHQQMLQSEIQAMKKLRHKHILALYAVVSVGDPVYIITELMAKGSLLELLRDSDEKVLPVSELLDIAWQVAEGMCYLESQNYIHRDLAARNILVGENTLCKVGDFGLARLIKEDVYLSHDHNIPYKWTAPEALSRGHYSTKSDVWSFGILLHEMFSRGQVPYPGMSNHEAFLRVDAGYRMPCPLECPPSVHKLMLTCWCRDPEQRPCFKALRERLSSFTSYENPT
Sequence of Mitogen-activated protein kinase kinase kinase kinase 5 (Homo sapiens) (Q9Y4K4 whole entry, looked up): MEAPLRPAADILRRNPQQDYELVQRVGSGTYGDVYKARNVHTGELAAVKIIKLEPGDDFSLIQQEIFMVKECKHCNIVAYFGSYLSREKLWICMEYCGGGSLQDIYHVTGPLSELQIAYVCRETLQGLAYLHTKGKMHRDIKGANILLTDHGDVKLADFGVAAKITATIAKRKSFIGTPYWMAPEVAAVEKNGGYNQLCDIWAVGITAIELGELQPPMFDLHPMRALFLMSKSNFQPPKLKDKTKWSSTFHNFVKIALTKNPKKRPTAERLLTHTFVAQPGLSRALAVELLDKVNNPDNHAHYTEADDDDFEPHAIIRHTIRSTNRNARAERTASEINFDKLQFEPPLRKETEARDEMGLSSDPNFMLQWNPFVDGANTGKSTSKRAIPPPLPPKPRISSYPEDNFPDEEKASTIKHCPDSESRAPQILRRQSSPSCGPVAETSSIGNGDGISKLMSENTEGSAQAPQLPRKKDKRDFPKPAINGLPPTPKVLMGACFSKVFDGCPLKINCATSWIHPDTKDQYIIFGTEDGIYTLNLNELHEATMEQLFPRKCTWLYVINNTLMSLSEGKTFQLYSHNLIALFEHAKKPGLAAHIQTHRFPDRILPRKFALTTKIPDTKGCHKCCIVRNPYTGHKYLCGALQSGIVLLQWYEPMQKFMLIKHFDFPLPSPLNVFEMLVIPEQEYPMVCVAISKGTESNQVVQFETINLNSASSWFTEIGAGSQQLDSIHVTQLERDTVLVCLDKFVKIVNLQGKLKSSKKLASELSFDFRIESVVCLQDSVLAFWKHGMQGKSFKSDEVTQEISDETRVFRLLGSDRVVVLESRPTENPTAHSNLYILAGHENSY
Sequence of Serine/threonine-protein kinase WNK2 (Homo sapiens) (Q9Y3S1 whole entry, the tested form may be a part): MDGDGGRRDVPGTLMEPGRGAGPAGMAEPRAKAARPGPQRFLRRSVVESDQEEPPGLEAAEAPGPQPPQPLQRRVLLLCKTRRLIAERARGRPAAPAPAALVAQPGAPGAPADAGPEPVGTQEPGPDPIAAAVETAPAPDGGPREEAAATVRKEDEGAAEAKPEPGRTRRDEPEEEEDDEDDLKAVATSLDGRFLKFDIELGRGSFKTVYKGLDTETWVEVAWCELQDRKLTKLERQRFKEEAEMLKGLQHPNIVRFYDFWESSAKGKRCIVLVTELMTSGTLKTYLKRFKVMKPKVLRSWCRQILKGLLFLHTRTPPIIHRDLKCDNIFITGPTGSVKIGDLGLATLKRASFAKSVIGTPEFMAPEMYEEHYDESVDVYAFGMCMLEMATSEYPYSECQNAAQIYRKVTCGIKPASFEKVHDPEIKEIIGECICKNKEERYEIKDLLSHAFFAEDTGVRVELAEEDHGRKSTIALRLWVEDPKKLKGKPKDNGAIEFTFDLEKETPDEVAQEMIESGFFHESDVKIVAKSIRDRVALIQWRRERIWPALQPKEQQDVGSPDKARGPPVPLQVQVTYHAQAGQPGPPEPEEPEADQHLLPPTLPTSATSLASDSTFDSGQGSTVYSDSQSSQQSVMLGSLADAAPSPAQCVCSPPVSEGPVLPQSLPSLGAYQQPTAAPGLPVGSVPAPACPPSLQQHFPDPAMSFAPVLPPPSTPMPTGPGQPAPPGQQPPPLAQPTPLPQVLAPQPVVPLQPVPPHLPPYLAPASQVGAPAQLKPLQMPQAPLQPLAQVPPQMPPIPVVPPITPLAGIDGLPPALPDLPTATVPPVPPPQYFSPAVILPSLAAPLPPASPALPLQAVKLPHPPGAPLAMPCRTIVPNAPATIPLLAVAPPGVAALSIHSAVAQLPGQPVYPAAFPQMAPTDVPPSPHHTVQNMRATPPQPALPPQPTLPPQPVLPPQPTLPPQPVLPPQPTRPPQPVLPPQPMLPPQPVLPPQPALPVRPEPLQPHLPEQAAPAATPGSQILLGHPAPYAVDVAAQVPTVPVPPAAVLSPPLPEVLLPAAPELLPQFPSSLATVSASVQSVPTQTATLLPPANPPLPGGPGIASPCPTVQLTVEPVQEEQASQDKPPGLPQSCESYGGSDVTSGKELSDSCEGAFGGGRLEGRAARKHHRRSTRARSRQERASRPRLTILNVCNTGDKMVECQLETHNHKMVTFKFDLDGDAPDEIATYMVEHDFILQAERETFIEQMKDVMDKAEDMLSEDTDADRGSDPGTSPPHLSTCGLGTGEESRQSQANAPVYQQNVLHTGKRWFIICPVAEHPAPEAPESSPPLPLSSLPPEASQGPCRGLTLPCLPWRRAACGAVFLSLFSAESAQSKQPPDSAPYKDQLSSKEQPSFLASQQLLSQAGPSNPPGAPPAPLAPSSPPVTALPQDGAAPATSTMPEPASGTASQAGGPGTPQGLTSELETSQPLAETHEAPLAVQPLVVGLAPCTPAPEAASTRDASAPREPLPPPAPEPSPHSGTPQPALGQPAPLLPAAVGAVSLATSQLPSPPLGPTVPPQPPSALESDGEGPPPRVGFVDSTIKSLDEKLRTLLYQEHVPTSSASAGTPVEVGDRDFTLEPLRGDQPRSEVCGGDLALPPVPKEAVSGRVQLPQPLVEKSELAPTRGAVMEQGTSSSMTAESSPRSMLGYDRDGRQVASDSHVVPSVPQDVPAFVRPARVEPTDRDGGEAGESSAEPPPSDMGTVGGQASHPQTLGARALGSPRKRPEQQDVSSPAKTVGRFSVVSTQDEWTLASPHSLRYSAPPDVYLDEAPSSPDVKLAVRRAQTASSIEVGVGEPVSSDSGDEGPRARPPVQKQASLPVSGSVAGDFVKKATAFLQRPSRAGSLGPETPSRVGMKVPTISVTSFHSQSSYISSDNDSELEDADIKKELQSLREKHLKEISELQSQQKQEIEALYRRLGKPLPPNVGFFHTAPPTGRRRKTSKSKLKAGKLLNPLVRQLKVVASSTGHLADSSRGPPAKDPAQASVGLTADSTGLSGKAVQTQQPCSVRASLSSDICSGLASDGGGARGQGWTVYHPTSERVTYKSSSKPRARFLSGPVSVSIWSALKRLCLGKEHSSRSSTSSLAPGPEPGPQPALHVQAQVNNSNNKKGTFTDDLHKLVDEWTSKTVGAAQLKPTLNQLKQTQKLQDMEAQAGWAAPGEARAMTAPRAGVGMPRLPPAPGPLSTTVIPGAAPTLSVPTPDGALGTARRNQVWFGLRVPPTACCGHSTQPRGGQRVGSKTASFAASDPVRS
Sequence of Maternal embryonic leucine zipper kinase (Homo sapiens) (Q14680 whole entry, looked up, the tested form may be a part): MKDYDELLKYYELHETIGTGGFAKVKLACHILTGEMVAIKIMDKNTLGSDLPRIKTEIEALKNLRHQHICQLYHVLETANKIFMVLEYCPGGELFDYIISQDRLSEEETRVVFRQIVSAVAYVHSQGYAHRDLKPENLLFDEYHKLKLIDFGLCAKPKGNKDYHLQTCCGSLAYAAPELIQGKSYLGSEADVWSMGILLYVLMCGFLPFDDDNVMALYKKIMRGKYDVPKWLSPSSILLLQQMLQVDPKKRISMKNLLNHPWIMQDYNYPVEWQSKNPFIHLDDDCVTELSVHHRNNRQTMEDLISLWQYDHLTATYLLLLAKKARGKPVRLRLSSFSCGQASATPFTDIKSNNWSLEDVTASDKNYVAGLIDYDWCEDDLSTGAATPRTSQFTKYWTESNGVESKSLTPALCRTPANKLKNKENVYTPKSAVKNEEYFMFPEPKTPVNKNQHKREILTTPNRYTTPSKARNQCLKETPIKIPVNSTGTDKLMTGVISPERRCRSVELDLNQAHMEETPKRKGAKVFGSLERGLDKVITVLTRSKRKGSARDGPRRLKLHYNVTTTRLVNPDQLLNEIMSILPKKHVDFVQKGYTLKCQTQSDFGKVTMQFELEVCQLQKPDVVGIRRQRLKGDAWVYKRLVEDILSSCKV
Sequence of Dual specificity mitogen-activated protein kinase kinase 4 (Mus musculus) (P47809 whole entry, the tested form may be a part): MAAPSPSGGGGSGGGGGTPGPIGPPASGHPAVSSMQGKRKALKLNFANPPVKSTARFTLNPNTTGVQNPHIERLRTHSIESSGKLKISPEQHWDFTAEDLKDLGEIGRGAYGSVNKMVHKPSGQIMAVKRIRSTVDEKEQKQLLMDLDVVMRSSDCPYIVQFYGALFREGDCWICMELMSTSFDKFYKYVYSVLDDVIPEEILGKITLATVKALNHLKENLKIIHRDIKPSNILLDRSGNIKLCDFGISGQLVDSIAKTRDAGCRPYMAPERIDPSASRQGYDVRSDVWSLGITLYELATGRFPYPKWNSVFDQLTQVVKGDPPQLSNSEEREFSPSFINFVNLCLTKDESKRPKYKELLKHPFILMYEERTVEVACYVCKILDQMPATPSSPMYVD
Sequence of Mitogen-activated protein kinase 14 (Homo sapiens) (Q16539 whole entry): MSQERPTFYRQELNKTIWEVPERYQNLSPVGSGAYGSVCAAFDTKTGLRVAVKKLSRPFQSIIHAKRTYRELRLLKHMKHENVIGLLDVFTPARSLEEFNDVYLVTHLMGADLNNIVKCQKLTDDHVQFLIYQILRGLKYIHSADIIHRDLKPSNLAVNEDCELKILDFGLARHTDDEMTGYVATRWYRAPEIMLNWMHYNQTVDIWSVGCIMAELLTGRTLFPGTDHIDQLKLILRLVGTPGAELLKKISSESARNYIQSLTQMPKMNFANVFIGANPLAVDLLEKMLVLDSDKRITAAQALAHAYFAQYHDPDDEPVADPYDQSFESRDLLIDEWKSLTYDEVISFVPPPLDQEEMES

Turning to `CS(=O)(=O)c1ccc(-n2nc(-c3cnc4[nH]ccc4c3)c3c(N)ncnc32)cc1`, the inhibition is 93% in experiment [1]; 102% in experiment [2]; 7% in [3]; 9% in [4]; 19% in experiment [5]; -1% in [6]. The inhibition in experiment [7] was 11%; in [8], 3%; in [9], -3%; in [10], 1%; in [11] it was -4%; in [12], -7%. Moreover, the inhibition was 28% in experiment [13]; 10% in experiment [14]; -3% in [15]; -7% in experiment [16]; 0% in experiment [17]; 42% in [18]. The inhibition in [19] is -8%; in experiment [20], -5%; in experiment [21], -5%; in experiment [22] it was 2%; in [23], 23%; in experiment [24], 102%.

Values taken from ChEMBL document CHEMBL4190187, “Discovery of pyrazolopyrimidine derivatives as novel inhibitors of ataxia telangiectasia and rad3 related protein (ATR)” (Bioorg Med Chem Lett, 2017).
